Measured values: paper PMC10961402, “Safety, tolerability, pharmacokinetics and pharmacokinetic-pharmacodynamic modeling of cetagliptin in patients with type 2 diabetes mellitus” (Frontiers in Endocrinology, 2024)
Where two headings read alike, the source gives them in different places.

Key:
Assay type in all cases: in vivo, human
[1] = Plasma pharmacokinetics after single and multiple oral doses (non-compartmental analysis); details: patients with T2DM; for AUC(0-t): po, 100 mg
Description: This was a single-center, randomized, double-blind, placebo and positive-controlled, single and multiple oral-dose study. A total of 32 Chinese adults diagnosed with T2DM were recruited for this study and allocated into two dosage groups: 50 mg and 100 mg, each consisting of 16 participants. […] The positive control was designed as open label. […] Subjects underwent medication randomization on day -1, and were assigned the corresponding investigational products. They were orally administered to the drug once every morning on fasting condition for 14 consecutive days. […] After finished the dosing, another OGTT was performed on day 15. Blood samples were collected at designated time points for the analysis of PK/PD and exploratory indicators. Subjects were discharged after completion of the safety assessments on day 19. […] PK parameters were calculated using non-compartmental analysis with Phoenix WinNonlin (version 8.1, Certara, Co., Princeton, NJ, United States). Peak plasma concentration after administration (Cmax) and time to reach Cmax (Tmax) were obtained directly from the observed data, elimination half-life (t1/2) was calculated as ln2/λz using the best fit mode, where λz was the terminal elimination rate constant. Area under the plasma concentration-time curve from zero to the last measurable concentration (AUC0-t) was estimated using the linear trapezoidal method and AUC from zero to infinity (AUC0-∞) was calculated as AUC0-t+Ct/λz, where Ct was the last measured concentration. […] Apparent total plasma clearance after non-intravenous (CL/F) and apparent volume of distribution in terminal phase after non-intravenous (Vz/F) were calculated as Dose/AUC0-∞ and CL/λz, respectively.

plasma active GLP-1 = experiment: Plasma active GLP-1 concentration change from baseline (ELISA); details: patients with T2DM
Description: Blood samples for GLP-1 activity evaluation were collected at the same time points as for PK. 2 mL blood samples were collected for GLP-1 activity detection (20 μL DPP-4i was added to blood-collecting tubes beforehand). The tubes were placed on ice until centrifugation. The blood samples were centrifuged at 2-8°C, 1500 g for 10 minutes within 1 hour after blood collection. After centrifugation, the blood samples were evenly divided into two aliquots and stored at -80 ± 10°C. Plasma active GLP-1 concentrations were determined using a validated ELISA method. Linear calibration curves were obtained in the concentration range of 0.017-276 pM ([31]).
The change of GLP-1 concentration from baseline (△GLP-1) was calculated as follows:
Δ [GLP-1] = [GLP-1] (t) - [GLP-1] (0)
The calculated parameters for GLP-1 activity were as follows: the baseline GLP-1 value before dosing (Baseline), Rmax, TRmax, AUEC0-t, AUEC0-24h, GLP-1 concentration change at 2 h after lunch (△GLP-1-6h), GLP-1 concentration change at 2 h after dinner (△GLP-1-12h), Rmin on day 14, and the average response on day 14 (Ravg).

[2] = test system: glucose, insulin, C-peptide, and glucagon; experiment: Oral glucose tolerance test (OGTT): glucose, insulin, C-peptide, glucagon; details: patients with T2DM
Description: To assess the impact of investigational products on glucose, insulin, C-peptide, and glucagon, OGTT tests were conducted on day -1 and day 15 following a fasting period of more than 8 hours. Subjects received a 75 g oral glucose dose and blood samples (1.5 mL for glucose, 3.5 mL for insulin and C-peptide, 2 mL for glucagon) were collected at 0, 0.167, 0.5, 1, 1.5, 2, and 3 h after ingestion of glucose. The PD parameters (AUEC0-t) for glucose, insulin, C-peptide, and glucagon were calculated by using drug effect module of non-compartmental method with Phoenix WinNonlin.

[3] = Preliminary efficacy evaluation (FPG, 2 h PPG, HbA1c, GA); details: patients with T2DM; 100 mg once daily; day 14
Description: Blood samples for determination of fasting plasma glucose (FPG) and 2 hour postprandial plasma glucose (2 h PPG) were collected on day -2, day 7 and day 14. Additionally, blood samples for determination of glycated Hemoglobin A1C (HbA1c) and glycated Albumin (GA) were collected on day -2 and day 14. The changes of the above indexes relative to pre-treatment baseline (day -2) were evaluated and compared to investigate the preliminary efficacy of investigational product.

[4] = Safety and tolerability assessments (adverse events); details: patients with T2DM, 14 days
Description: Safety and tolerability were evaluated by monitoring adverse events (AEs), laboratory tests (including blood routine, urine routine, stool routine, blood biochemical test and coagulation function), vital signs, physical examination, 12-lead electrocardiogram and other indicators. AEs were monitored and collected throughout the study. Descriptive analysis of the type and intensity of AEs were conducted according to NCICTC AE5.0.

[5] = 100 mg oral once daily, day 14, median (range)
[6] = cetagliptin group (50 or 100 mg, n=20) / sitagliptin group (100 mg, n=8)

## N[C@@H](CC(=O)N1CCn2c(nnc2C(F)(F)F)C1)Cc1cc(F)c(F)cc1F [Sitagliptin, sitagliptin, reference compound]
[1]; human, in vivo, 100 mg oral once daily, day 14
  half-life: 547 ± 39.8 min
[1]; human, plasma, 100 mg oral once daily, day 14, read-out: AUC0-24h
  AUC(0-t): 3760 ± 748 ng·h/mL
[1]; human, plasma, 100 mg oral once daily, day 14, read-out: AUC0-t
  AUC(0-t): 4290 ± 783 ng·h/mL
[1]; human, plasma, 100 mg oral, day 1, read-out: AUC0-24h
  AUC(0-t): 3340 ± 522 ng·h/mL
[1]; human, plasma, 100 mg oral once daily, day 14
  AUC(0-inf): 4380 ± 789 ng·h/mL
[1]; human, plasma, 100 mg oral once daily, day 14, read-out: Cmax,ss
  Cmax: 419 ± 137 ng/mL
[1]; human, plasma, 100 mg oral once daily, day 14, read-out: Vz,ss/F
  Vd/F: 362 ± 75.9 L
[1]; human, plasma, 100 mg oral, day 1, median (range), read-out: Tmax
  Tmax: 1.5 h
[1]; 100 mg oral once daily, day 14
  CLss/F: 27.5 ± 5.12 L/h
  Cavg: 157 ± 31.2 ng/mL
[1]; [5]
  Tmax,ss: 3.00 (0.500-5.00) h
[1]; 100 mg oral, day 1
  Cmax: 394 ± 105 ng/mL
[1]; once daily dosing, trough concentrations days 7, 10, 14
  time of daily dosing after which steady-state conditions were reached: 1 week
Plasma active GLP-1; 100 mg group, day 1 before dosing
  GLP-1 Baseline (value before dosing): 0.442 ± 0.406 pM
Plasma active GLP-1; 100 mg oral once daily, day 14
  R0h,ss (baseline plasma active GLP-1 on day 14): 1.700 ± 0.851 pM
  △GLP-1-6h (change at 2 h after lunch): 6.553 ± 3.739 pM
  △GLP-1-12h (change at 2 h after dinner): 5.775 ± 4.299 pM
  △GLP-1 Ravg,ss: 3.821 ± 2.361 pM
  △GLP-1 Rmax,ss: 8.080 ± 3.592 pM
Plasma active GLP-1; 100 mg oral once daily, day 14, listed as sitagliptin
  R0h,ss (baseline plasma active GLP-1 on day 14): 1.700 pM
Plasma active GLP-1; [5]
  △GLP-1 TRmax,ss: 5.00 (5.00-6.00) h
Plasma active GLP-1; 100 mg oral, day 1
  △GLP-1-6h (change at 2 h after lunch): 3.491 ± 1.703 pM
  △GLP-1-12h (change at 2 h after dinner): 3.764 ± 2.490 pM
  △GLP-1 AUEC0-24h: 61.2 ± 28.6 pM·h
  △GLP-1 Rmax: 5.901 ± 2.375 pM
Plasma active GLP-1; 100 mg oral, day 1, median (range)
  △GLP-1 TRmax: 7.00 (5.00-12.00) h
[2]; 100 mg group, day -1 (baseline before dosing)
  glucose AUEC0-t (OGTT): 44.07 ± 5.74 mmol·h/L
[2]; day 15 after 100 mg once daily for 14 days
  glucose AUEC0-t (OGTT): 43.40 ± 6.51 mmol·h/L
[3]
  decrease of HbA1c compared with baseline: 0.44%
[4]; cetagliptin 50 or 100 mg, sitagliptin 100 mg
  intensity of drug-related adverse events: mild
[4]; [6]
  number of drug-related AEs: 7 AEs
  number of subjects reporting drug-related AEs: 3 subjects
